From patent publication US12473295B2, “Substituted straight chain spiro derivatives” (Janssen Pharmaceutica NV, priority 2019, dated 2025)
Where a name gives a salt, the structure may show the parent alone. Read-outs that look alike come from different tables or passages of the source.

Experiments:
[1] = Mouse PK (in vivo T1/2 and oral bioavailability); settings: fasted male CD-1 mice, formulating agent HP-β-CD; for half-life: single IV 0.5 or 1.0 mg/kg; for bioavailability: single PO 5 mg/kg
Method: 3) Mouse PK (In Vivo T1/2 and Oral Bioavailability)
In vivo pharmacokinetics (PK) were assessed in fasted male CD-1 mice (age 6-8 weeks) following a single intravenous (IV, 0.5 or 1.0 mg/kg administered at 2.5 ml/kg) or oral (PO, 5 mg/kg administered at 10 ml solution/kg) dose of test article formulated in a 20% (w:vol) HP-β-CD solution or in Pyrogen free water.
Plasma and/or whole blood samples were collected from the dorsal metatarsal vein at desired timepoints via serial capillary microsampling (approx. 0.03 mL) using EDTA as an anticoagulant. Concentrations of compound in the plasma and blood samples were analyzed using a qualified LC-MS/MS method. In silico analysis of main pharmacokinetic parameters was performed using WinNonlin (Phoenix™, version 6.1) or similar software. (Results see Table 4)

OCI-AML3 cells = assay: Proliferation assay (spheroid growth, 8 days), OCI-AML3; assay type: cell-based, human
Outline: (§1)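 Spheroid size on day 8, taken as live-cell imaging confluence, served as readout after 8-day compound exposure (0.3% DMSO, 37 °C, 5% CO2) in round-bottom low-attachment wells. Seeding was 200 cells for MOLM14 and OCI-AML3, 300 for KO-52. IC50 came from % effect versus DMSO and reference baseline, fitted with variable slope.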

MOLM14 cells = assay: Proliferation assay (spheroid growth, 8 days), MOLM14; assay type: cell-based, human; settings: Homo sapiens, MOLM14, 8 days, read-out: spheroid assay_OneTime MOLM14 IC50;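 further: spheroid size read as confluence by live-cell imaging, compounds added at a range of concentrations with 0.3% DMSO, DMSO-treated wells = 0%, highest reference dose = low control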
MEIS1 mRNA = MEIS1 mRNA expression assay (Quantigene Singleplex) in MOLM14 cells; assay type: cell-based, human; settings: Homo sapiens;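 further: MEIS1 transcript levels read by probe hybridization and normalized to RPL28 mRNA, with IC50 fitted to fold changes across a rising compound concentration series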
[2] = target: menin/MLL (terbium chelate-labeled menin, FITC-MBM1 peptide) (Homo sapiens (Human), UniProt O00255); assay: Menin/MLL homogenous time-resolved fluorescence (HTRF) assay; assay type: binding; settings: HTRF-30 min incubation IC50, 30 min incubation;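 further: IC50 from percent inhibition of HTRF signal, normalized between wells without competitor and wells with a saturating competitor that displaces FITC-MBM1 from His-tagged menin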
Sequence of menin/MLL (terbium chelate-labeled menin, FITC-MBM1 peptide) (O00255 other isoform, or with tags, fused parts or gaps): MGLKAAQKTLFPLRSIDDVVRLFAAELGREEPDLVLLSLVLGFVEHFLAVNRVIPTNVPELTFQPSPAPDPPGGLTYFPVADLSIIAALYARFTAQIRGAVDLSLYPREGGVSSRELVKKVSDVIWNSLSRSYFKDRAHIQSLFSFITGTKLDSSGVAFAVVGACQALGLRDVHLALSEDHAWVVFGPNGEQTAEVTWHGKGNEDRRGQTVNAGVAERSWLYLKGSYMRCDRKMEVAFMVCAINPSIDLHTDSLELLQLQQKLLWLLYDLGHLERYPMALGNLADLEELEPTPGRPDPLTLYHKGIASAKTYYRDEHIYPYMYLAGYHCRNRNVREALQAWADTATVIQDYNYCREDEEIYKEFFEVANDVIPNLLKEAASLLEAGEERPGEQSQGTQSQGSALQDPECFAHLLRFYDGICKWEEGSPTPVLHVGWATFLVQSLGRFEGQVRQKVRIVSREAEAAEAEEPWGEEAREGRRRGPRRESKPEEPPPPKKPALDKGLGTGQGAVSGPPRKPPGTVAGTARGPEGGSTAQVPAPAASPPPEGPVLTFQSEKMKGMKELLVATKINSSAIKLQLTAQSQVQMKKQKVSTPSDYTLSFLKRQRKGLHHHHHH

KO-52 cells = assay: Proliferation assay (spheroid growth, 8 days), KO-52 control cell line; assay type: cell-based, human; settings: Homo sapiens, read-out: spheroid assay_OneTime KO-52 IC50
Outline: as §1

hERG potassium channel = hERG potassium channel (Homo sapiens (Human), UniProt Q12809); assay: Effect on membrane potassium current IKr in hERG transfected CHO cells, Protocol 1 (QPatch); assay type: cell-based
Sequence of hERG potassium channel (Q12809 whole entry): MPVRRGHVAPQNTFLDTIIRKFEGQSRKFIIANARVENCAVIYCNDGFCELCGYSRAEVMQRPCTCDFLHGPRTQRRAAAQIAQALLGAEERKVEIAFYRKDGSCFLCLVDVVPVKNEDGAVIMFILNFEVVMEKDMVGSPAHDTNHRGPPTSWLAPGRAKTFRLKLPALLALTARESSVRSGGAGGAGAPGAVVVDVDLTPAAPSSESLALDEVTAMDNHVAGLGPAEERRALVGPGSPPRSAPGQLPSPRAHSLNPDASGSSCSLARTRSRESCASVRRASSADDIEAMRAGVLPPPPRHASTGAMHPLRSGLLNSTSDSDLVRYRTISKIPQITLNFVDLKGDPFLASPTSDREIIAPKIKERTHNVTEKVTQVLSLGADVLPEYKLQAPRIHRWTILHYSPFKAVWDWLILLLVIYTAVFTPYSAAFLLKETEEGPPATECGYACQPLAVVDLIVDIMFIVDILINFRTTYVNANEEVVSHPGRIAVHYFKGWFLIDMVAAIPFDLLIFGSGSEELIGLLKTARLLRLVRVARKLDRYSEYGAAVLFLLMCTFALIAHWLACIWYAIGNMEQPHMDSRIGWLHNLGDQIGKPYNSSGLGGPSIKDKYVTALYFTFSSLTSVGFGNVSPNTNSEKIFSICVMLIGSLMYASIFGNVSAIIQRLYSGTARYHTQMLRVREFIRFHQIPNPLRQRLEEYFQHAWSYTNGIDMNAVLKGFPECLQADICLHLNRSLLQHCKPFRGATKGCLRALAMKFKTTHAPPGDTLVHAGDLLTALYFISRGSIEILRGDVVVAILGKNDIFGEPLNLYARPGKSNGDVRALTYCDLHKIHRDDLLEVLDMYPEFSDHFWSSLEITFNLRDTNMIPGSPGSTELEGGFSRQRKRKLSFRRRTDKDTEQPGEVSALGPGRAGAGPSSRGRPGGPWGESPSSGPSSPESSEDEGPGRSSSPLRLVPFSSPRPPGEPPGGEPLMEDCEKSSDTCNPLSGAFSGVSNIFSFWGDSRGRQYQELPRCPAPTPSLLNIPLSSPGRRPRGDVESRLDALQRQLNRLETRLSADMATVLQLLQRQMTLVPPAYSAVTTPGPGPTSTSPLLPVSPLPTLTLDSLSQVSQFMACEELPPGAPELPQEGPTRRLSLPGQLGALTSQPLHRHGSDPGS
Method: 8) Effect on the Membrane Potassium Current IKr in hERG Transfected Cell Lines
• CHO Chinese hamster ovary cell line • DMSO Dimethylsulfoxide • hERG human ether-á-go-go-related gene • IKr rapidly activating delayed-rectifier K^+ current Methods
Experiments were performed using CHO cells stably expressing the hERG potassium channel. Cells were grown at 37° C. and 5% CO2 in culture flasks in Ham's F12 Medium supplemented with 10% heat-inactivated fetal calf serum, hygromycin B (100 μg/ml) and geneticin (100 μg/ml). For use in the automated patch-clamp system QPatch (Sophion) cells were harvested to obtain cell suspension of single cells.
Solutions: The bath solution contained (in mM) 145 NaCl, 4 KCl, 10 glucose, 10 HEPES ((4-(2-hydroxyethyl)-1-piperazineethanesulfonic acid), 2 CaCl2 and 1 MgCl2 (pH 7.4 with NaOH). The pipette solution contained (in mM) 120 KCl, 10 EGTA (Ethylene glycol-bis(2-aminoethylether)-N,N,N′,N′-tetraacetic acid), 10 HEPES, 5.374 CaCl2 and 1.75 MgCl2 (pH 7.2 with KOH).
Patch-clamp experiments were performed in the voltage-clamp mode and whole-cell currents were recorded with an automated patch-clamp assay utilizing the QPatch system (Sophion). Current signals were amplified and digitized, stored and analyzed by using the QPatch assay software.
The holding potential was −80 mV. The hERG current (K^+-selective outward current) was determined as the maximal tail current at −40 mV after a 2 second depolarization to +60 mV. Pulse cycling rate was 15 s. A short pulse (90 ms) to −40 mV served as a baseline step to calculate the tail current amplitude. After establishing whole-cell configuration and a stability period, the solvent control (0.3% DMSO) was applied for 5 minutes followed by the test substance by four increasing concentrations of 3×10^−7 M, 3×10^−6 M, 10^−5 M and 3×10^−5 M. Each concentration of the test substance was applied twice. The effect of each concentration was determined after 5 min as an average current of 3 sequential voltage pulses. To determine the extent of block the residual current was compared with vehicle pre-treatment.
Concentration/response relations were calculated by non-linear least-squares fits to the individual data points. The half-maximal inhibiting concentration (IC50) was calculated by the fitting routine.

[3] = Metabolic stability in mouse liver microsomes; assay type: in vitro ADME; settings: mouse liver microsomes 0.5 mg/mL, 1 μM test compound, pH 7.4; read-out: Mouse LM Clint
Method: 4) Metabolic Stability in Human/Mouse Liver Microsomes
The objective of this study is to measure in vitro metabolic stability of test compound(s) in human and mouse liver microsomes and provide quantitative information on the rate of metabolic turnover (i.e. determination of the apparent intrinsic clearance of test).
Test items were prepared at a stock concentration of 10 mM in DMSO. For determination of metabolic turnover, a final working solution was prepared by adding 2 μL of 10 mM DMSO stock solution for test compound or positive control compounds to 198 μL of acetonitrile (100 μM final concentration).
Incubations were performed as follows: First, liver microsomes were thawed on ice and a master solution containing liver microsomes in 100 mM PBS (phosphate-buffered saline) at pH 7.4 is prepared. Next, the liver microsomes solution was added to the incubation plates and 10 mM NADPH (Nicotinamide-adenine dinucleotide phosphate) was added (MW: 833.4 g/mol; Roche Diagnostics GmbH, Germany. Dissolved in phosphate buffer (100 mmol/L, pH 7.4)). The mixture was mixed for 10 seconds and pre-warmed in the incubation plate at 37° C. for 10 minutes. The metabolic reaction was initiated with the addition of 5 μL of the 100 μM working solution for test compound or positive control compounds to incubation plate (final test item concentration=1 μM). The reaction final mixture should contain 1 mM NADPH, 0.5 mg/mL microsomes protein and 1 μM test compound or positive control compound in 100 mM PBS at pH 7.4. The percentage of organic solvent in incubation mixture is 1% with DMSO ≤0.02%.
The reaction was quenched by transferring 50 μL of the incubated mixture at selected time points into the quenching plate containing 200 μL of cold methanol. After sampling of all the timepoints the quenching plate was centrifuged at 4000 rpm for 40 minutes to precipitate protein. A total of 90 μL of the supernatant was transferred to an analysis plate and ultra-pure H2O water is added into each well for LC/MS/MS analysis. All incubations and analysis were performed in duplicate.
All calculations were carried out using Microsoft Excel. The slope value, k, was determined by linear regression of the natural logarithm of the remaining percentage of the parent drug vs. incubation time curve.
The in vitro half-life (in vitro tin) was determined from the slope value: in vitro t1/2=−(0.693/k)
Conversion of the in vitro tin (in min) into the in vitro intrinsic clearance (in vitro CLint, in μL/min/mg proteins) was done using the following equation: […]

[4] = Homo sapiens, OCI-AML-3, […], OCI-AML3, 8 days
[5] = MOLM-14, 48 h, 48 hours incubation

half-life [1] [h]	bioavailability [1] [%]	IC50 (OCI-AML3 cells; [4]) [nM]	IC50 (MOLM14 cells; MOLM-14, […]) [nM]	IC50 (MEIS1 mRNA; [5]) [nM]	IC50 [2] [nM]	IC50 (OCI-AML3 cells; OCI-AML3, 8 days, fumarate) [nM]	microsomal CLint at 1 μM [3] [µL/min/mg]	Compound	IC50 (KO-52 cells; […]) [nM]	IC50 (hERG potassium channel) [nM]	IC50 (OCI-AML3 cells; Homo sapiens, OCI-AML-3, OCI-AML3, 8 days) [nM]	IC50 (MOLM14 cells; MOLM-14) [nM]	IC50 (MEIS1 mRNA; MOLM-14, 48 hours incubation) [nM]	IC50 (KO-52 cells) [nM]
6.2	4	–	–	–	–	–	–	CCN(C(=O)c1cc(F)ccc1Oc1nncnc1N1CCC2(C1)CN([C@H](CCCN[C@H](C)COC)C(C)C)C2)C(C)C.O=C(O)/C=C/C(=O)O [Compound 112]	–	–	–	–	–	–
–	–	140	27	44	0.26	–	–	CCN(C(=O)c1cc(F)ccc1Oc1nncnc1N1CCC2(C1)CN([C@H](CCCNC(=O)OC(C)OC(=O)C(C)C)C(C)C)C2)C(C)C (stereo partly drawn) [Compound 39, 1-((((R)-4-(6-(6-(2-(ethyl(isopropyl)carbamoyl)-4-fluorophenoxy)-1,2,4-triazin-5-yl)-2,6-diazaspiro[3.4]octan-2-yl)-5-methylhexyl)carbamoyl)oxy)ethyl isobutyrate]	> 15000	7600	–	–	–	–
–	–	1440	300	240	0.61	–	–	CCN(C(=O)c1cc(F)ccc1Oc1nncnc1N1CCC2(C1)CN([C@H](CCCNCC(F)(F)F)C(C)C)C2)C(C)C [Compound 17, (R)-N-ethyl-5-fluoro-N-isopropyl-2-((5-(2-(2-methyl-6-((2,2,2-trifluoroethyl)amino)hexan-3-yl)-2,6-diazaspiro[3.4]octan-6-yl)-1,2,4-triazin-6-yl)oxy)benzamide]	6790	4100	–	–	–	–

Further lines, the compound ahead of its results:

Compound	half-life [1] [h]	bioavailability [1] [%]	IC50 (OCI-AML3 cells; [4]) [nM]	IC50 (MOLM14 cells; MOLM-14, […]) [nM]	IC50 (MEIS1 mRNA; [5]) [nM]	IC50 [2] [nM]	IC50 (OCI-AML3 cells; OCI-AML3, 8 days, fumarate) [nM]	microsomal CLint at 1 μM [3] [µL/min/mg]	IC50 (KO-52 cells; […]) [nM]	IC50 (hERG potassium channel) [nM]	IC50 (OCI-AML3 cells; Homo sapiens, OCI-AML-3, OCI-AML3, 8 days) [nM]	IC50 (MOLM14 cells; MOLM-14) [nM]	IC50 (MEIS1 mRNA; MOLM-14, 48 hours incubation) [nM]	IC50 (KO-52 cells) [nM]
CC(C)[C@@H](CCCN(C)C)N1CC2(CCN(c3ncnnc3Oc3ccc(F)cc3C(=O)N(C(C)C)C(C)C)C2)C1 (single isomer, unassigned) [Compound 102, (*R)-2-((5(2-(6-(dimethylamino)-2-methylhexan-3-yl)-2,6-diazaspiro[3.4]octan-6-yl)-1,2,4-triazin-6-yl)oxy)-5-fluoro-N,N-diisopropylbenzamide fumarate]	11	9.7	110	16	33	0.11	–	–	> 15000	–	–	–	–	–
CCN(C(=O)c1cc(F)ccc1Oc1nncnc1N1CCC2(C1)CN([C@H](CCC(C)(C)N(C)C)C(C)C)C2)C(C)C (single isomer, unassigned) [Compound 32, (*R)-2-((5(2-(6-(dimethylamino)-2,6-dimethylheptan-3-yl)-2,6-diazaspiro[3.4]octan-6-yl)-1,2,4-triazin-6-yl)oxy)-N-ethyl-5-fluoro-N-isopropylbenzamide]	–	–	280	58	88	0.1	–	–	12900	> 30200	–	–	–	–
CCN(C(=O)c1cc(F)ccc1Oc1nncnc1N1CCC2(C1)CN([C@H](CCCNCCC(F)F)C(C)C)C2)C(C)C.O=C(O)/C=C/C(=O)O [Compound 114]	9.5	8.7	–	–	–	–	–	–	–	–	–	–	–	–
CCN(C(=O)c1cc(F)ccc1Oc1nncnc1N1CCC2(C1)CN([C@H](CCC(C)(C)NC)C(C)C)C2)C(C)C (single isomer, unassigned) [Compound 35, (*R)-2-((5-(2-(2,6-dimethyl-6-(methylamino)heptan-3-yl)-2,6-diazaspiro[3.4]octan-6-yl)-1,2,4-triazin-6-yl)oxy)-N-ethyl-5-fluoro-N-isopropylbenzamide hydrochloride]	–	–	490	200	120	0.15	–	–	> 15000	> 30200	–	–	–	–
CCN(C(=O)c1cc(F)ccc1Oc1nncnc1N1CCC2(C1)CN([C@H](CCCNCCC(F)(F)F)C(C)C)C2)C(C)C [Compound 14, (R)-N-ethyl-5-fluoro-N-isopropyl-2-((5-(2-(2-methyl-6-((3,3,3-trifluoropropyl)amino)hexan-3-yl)-2,6-diazaspiro[3.4]octan-6-yl)-1,2,4-triazin-6-yl)oxy)benzamide]	–	–	69	10	8.5	0.05	–	–	3100	20000	–	–	–	–
CCN(C(=O)c1cc(F)ccc1Oc1nncnc1N1CCC2(C1)CN([C@H](CCCNCCOC)C(C)C)C2)C(C)C [Compound 397, (R)-N-ethyl-5-fluoro-N-isopropyl-2-((5-(2-(6-((2-methoxyethyl)amino)-2-methylhexan-3-yl)-2,6-diazaspiro[3.4]octan-6-yl)-1,2,4-triazin-6-yl)oxy)benzamide fumarate]	–	–	–	15	–	–	27	< 7.5	> 15000	–	–	–	–	–
CCN(C(=O)c1cc(F)ccc1Oc1nncnc1N1CCC2(C1)CN([C@H](CCCNC(=O)OC)C(C)C)C2)C(C)C [Compound 10, methyl (R)-(4-(6-(6-(2-(ethyl(isopropyl)carbamoyl)-4-fluorophenoxy)-1,2,4-triazin-5-yl)-2,6-diazaspiro[3.4]octan-2-yl)-5-methylhexyl)carbamate]	–	–	–	–	–	0.18	–	–	–	> 30200	1680	340	410	> 15000
